Columns and labels:
benzodiazepine receptors = test: specific binding to benzodiazepine receptors, [3H]-diazepam displacement; conditions: [3H]diazepam 2 nM, pH 7.4, 4° C., 20 minutes
Method: The compounds (I) according to the invention were tested for their affinity for benzodiazepine receptors using radioactive [^3 H]-diazepam.
The assay for specific binding to benzodiazepine receptors was performed according to the method described in the literature (Nature, 266, 732 (1977); European J. Pharmacol., 48, 263 (1978)). Thus, a crude mitochondrial fraction obtained from the cerebral cortex of SD strain male rats aged 9 to 10 weeks was suspended in 50 mM Tris-HCl buffer (pH 7.4), followed by addition of the test drug at several concentration levels and of [^3 H]diazepam (final concentration 2 nM). Each suspension was incubated at 4° C. for 20 minutes and then filtered through a Whatman GF/B glassfiber filter, and the radioactivity of [^3 H]diazepam on the filter was measured with a liquid scintillation counter. In this manner, the IC50 value, namely the concentration of the test drug at which the [^3 H]diazepam binding was inhibited by 50%, was determined.

male rat (SD/JCL) = test: antianxiety activity, anticonflict test (Vogel et al.); type: in vivo; conditions: po; orally administered, male rat, 30, 60 or 180 minutes after administration; read-out: Antianxiety activity MED
Method: The antianxiety activity measurement was performed in accordance with Vogel et al. [Psychopharmacologia, 21, 1 (1970)] as follows: An apparatus comprising a large clear box with a stainless steel grid floor and a smaller opaque dark box provided with a drinking tube was arranged such that a rat placed therein could receive, on the sole, electric shocks through the grid floor following each twentieth lick. The test compound was orally administered to each male rat (SD/JCL) deprived of water for 48 hours prior to the test, which rat was then, 30, 60 or 180 minutes after administration, placed in the apparatus mentioned above and the number of licks was recorded over 3 minutes. The increase in the number of licks as compared with a physiological saline group was determined and taken as a measure of antianxiety potency, and the minimum effective dose determined accordingly.

rats = test: muscle relaxant activity, rotating rod; type: in vivo; conditions: Rattus norvegicus, 1 min, 50% of rats fall off within 1 minute
Method: Groups of 6 rats were used. The rats were placed on a rotating rod with a diameter of 3.5 cm. The rod rotated with a speed of 8 revolutions per minute. […] The dose, ED50, of the test compound as required to make 50% of the rats fall off the rod was calculated [J. Am. Pharmaceutical Association, 46, 208 (1957)].

mice = test: sleep-inducing activity, potentiation of pentobarbital sleep; type: in vivo; conditions: Mus musculus, oral, 30 minutes before pentobarbital 25 mg/kg i.p.
Method: Mice, in groups of eight, were orally administered the test compound and, 30 minutes later, intraperitoneally administered 25 mg/kg of pentobarbital. The loss of righting reflex which lasted for 2 minutes or longer during the 30-minute period following pentobarbital administration was taken as an indication of sleep potentiation. The dose, ED50, of the test compound as required to achieve sleep potentiation in 50% of mice was calculated.

SMILES	IC50 (benzodiazepine receptors) [nM]	also measured
COc1ccc(N2C(=O)c3ccc([N+](=O)[O-])cc3C2CC(=O)N2CCC(=O)CC2)cc1 (centres unmarked)	6.16	–
COC1(OC)CCN(C(=O)CC2c3ccccc3C(=O)N2c2ccc3ccc(Cl)nc3n2)CC1 (centres unmarked) [drawing 39]	–	minimal effective dose (male rat (SD/JCL)): < 20 mg/kg; ED50 (rats): > 40 mg/kg; ED50 (mice): ~50 mg/kg
O=C1CCN(C(=O)CC2c3ccccc3C(=O)N2c2ccc3ccc(Cl)nc3n2)CC1 (centres unmarked) [drawing 38]	–	minimal effective dose (male rat (SD/JCL)): 20 mg/kg; ED50 (rats): > 80 mg/kg; ED50 (mice): 24.3 mg/kg
COc1ccc(N2C(=O)c3ccc([N+](=O)[O-])cc3C2CC(=O)N2CCC3(CC2)OCCO3)cc1 (centres unmarked)	21.9	–
O=C(CC1c2ccccc2C(=O)N1c1ccc2ccc(Cl)nc2n1)N1CCC(O)CC1 (centres unmarked) [drawing 41]	–	minimal effective dose (male rat (SD/JCL)): > 30 mg/kg; ED50 (rats): > 80 mg/kg; ED50 (mice): 40.2 mg/kg
O=C(CC1c2ccccc2C(=O)N1c1ccc2ccc(Cl)nc2n1)N1CCC2(CC1)OCCCO2 (centres unmarked)	4.9	–
CC1(C)COC2(CCN(C(=O)CC3c4ccccc4C(=O)N3c3ccc4ccc(Cl)nc4n3)CC2)OC1 (centres unmarked)	2.4	–
COc1ccc(N2C(=O)c3ccc(Cl)cc3C2CC(=O)N2CCC(=O)CC2)cc1 (centres unmarked)	2.4	–
O=C1CCN(C(=O)CC2c3ccccc3C(=O)N2c2ccc3ccc(Cl)nc3n2)CC1 (centres unmarked) [drawing 16]	0.537	–
COC1(OC)CCN(C(=O)CC2c3ccccc3C(=O)N2c2ccc3ccc(Cl)nc3n2)CC1 (centres unmarked) [drawing 19]	1.29	–
COc1ccc(N2C(=O)c3ccc([N+](=O)[O-])cc3C2CC(=O)N2CCC(=NO)CC2)cc1 (centres unmarked)	7.94	–
CC(=O)OC1CCN(C(=O)CC2c3ccccc3C(=O)N2c2ccc3ccc(Cl)nc3n2)CC1 (centres unmarked)	0.501	–
O=C(CC1c2ccccc2C(=O)N1c1ccc2ccc(Cl)nc2n1)N1CCC(O)CC1 (centres unmarked) [drawing 34]	0.794	–
O=C(CC1c2ccccc2C(=O)N1c1ccc2ccc(Cl)nc2n1)N1CCC2(CC1)SCCCS2 (centres unmarked)	0.562	–
COc1ccc(N2C(=O)c3ccc(Cl)cc3C2CC(=O)N2CCC(=NO)CC2)cc1 (centres unmarked)	3.47	–
O=C(CC1c2ccccc2C(=O)N1c1ccc2ccc(Cl)nc2n1)N1CCC(=NO)CC1 (centres unmarked)	0.645	–
O=C(CC1c2ccccc2C(=O)N1c1ccc2ccc(Cl)nc2n1)N1CCC2(CC1)OCCO2 (centres unmarked) [drawing 36]	–	minimal effective dose (male rat (SD/JCL)): 5 mg/kg; ED50 (rats): > 80 mg/kg; ED50 (mice): > 50 mg/kg
O=C(CC1c2ccccc2C(=O)N1c1ccc2ccc(Cl)nc2n1)N1CCC2(CC1)SCCS2 (centres unmarked)	1.23	–
O=C(CC1c2ccccc2C(=O)N1c1ccc2ccc(Cl)nc2n1)N1CCC2(CC1)OCCO2 (centres unmarked) [drawing 17]	0.38	–
CCC(=O)OC1CCN(C(=O)CC2c3ccccc3C(=O)N2c2ccc3ccc(Cl)nc3n2)CC1 (centres unmarked)	1	–
COc1ccc(N2C(=O)c3ccc(Cl)cc3C2CC(=O)N2CCC3(CC2)OCCO3)cc1 (centres unmarked)	8.71	–

From US4778801A, “Isoindolinone derivatives, production and use thereof” (Takeda Chemical Industries, Ltd., priority 1984, dated 1988)
